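Exposure lasted 48 hours, with cells grown in 96-well plates and compounds tested at five concentrations. GI50 is the concentration that inhibits growth by half. TGI denotes the concentration required for complete inhibition of growth.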
How the values were obtained:
Test in all cases: DTP human tumour cell line panel, 48 h
[1] = test system: 786-0 renal
[2] = test system: EKVX NSCLC
[3] = test system: HCT-15 colon
[4] = test system: HL-60(TB) leukemia
[5] = test system: IGROV1 ovarian
[6] = test system: K-562 leukemia
[7] = test system: OVCAR-3 ovarian
[8] = test system: SN12C renal
[9] = test system: T-47D breast
[10] = test system: TK-10 renal

C=C1[C@@H](O)O[C@H]2[C@H]1C[C@H](OC(C)=O)[C@]13C(=O)O[C@H]4C[C@](C)(O)[C@H]([C@H]41)C31C=C(C)[C@]2(O)O1 showed a GI50 [1] of 22.4 µM, a TGI [1] of 49.1 µM and a TGI [2] of 0.0269 µM. It also gave a GI50 [3] of 49.2 µM, a TGI [3] greater than 100 µM and a GI50 [4] of 61.8 µM. It also gave a TGI [4] greater than 100 µM, a GI50 [5] of 18.8 µM and a TGI [5] of 71.4 µM. The GI50 [6] was 53.8 µM, the TGI [6] was greater than 100 µM and the GI50 [7] was 7.43 µM. The TGI [7] was 32.6 µM, the GI50 [8] was 26.6 µM and the TGI [8] was 95.2 µM. For the same compound, the GI50 [9] was greater than 100 µM and the TGI [9] was greater than 100 µM.
Cc1[nH]c(-c2cc(N)ccc2Cl)c2c1C(=O)CCCC2 showed a GI50 [1] of 3.24 µM, a TGI [1] greater than 100 µM and a GI50 [2] of 6.09 µM. It also gave a TGI [2] greater than 100 µM, a GI50 [3] of 3.3 µM and a TGI [3] greater than 100 µM. It also gave a GI50 [4] of 2.03 µM, a TGI [4] of 6.79 µM and a GI50 [5] of 2.58 µM. It also gave a TGI [5] of 29.1 µM, a GI50 [6] of 3.59 µM and a TGI [6] greater than 100 µM. For the same compound, the GI50 [7] was 3.62 µM, the TGI [7] was 32.5 µM and the GI50 [8] was 5.01 µM. For the same compound, the TGI [8] was greater than 100 µM, the GI50 [9] was 3.47 µM and the TGI [9] was greater than 100 µM. The GI50 [10] was 2.19 µM and the TGI [10] was 31 µM.
With O=C(O)c1ccccc1NC(=S)c1ccccc1 the TGI [1] was greater than 100 µM, the TGI [2] was greater than 100 µM and the TGI [3] was greater than 100 µM. It also gave a TGI [4] of 98.3 µM, a TGI [5] of 98.9 µM and a TGI [6] greater than 100 µM. For the same compound, the TGI [7] was greater than 100 µM, the TGI [8] was greater than 100 µM and the TGI [9] was greater than 100 µM. It also gave a TGI [10] greater than 100 µM.
For CCN1C(=O)N(CC)C2C1NN=c1s/c(=C\c3ccc(F)cc3)c(=O)n12 (stereo not given), the GI50 [1] was 0.702 µM, the TGI [1] was greater than 100 µM and the GI50 [2] was 0.396 µM. It also gave a TGI [2] greater than 100 µM, a GI50 [3] of 0.0876 µM and a TGI [3] greater than 100 µM. The GI50 [4] was 0.17 µM, the TGI [4] was 0.514 µM and the GI50 [5] was 0.584 µM. The TGI [5] was greater than 100 µM, the GI50 [6] was 0.0566 µM and the TGI [6] was greater than 100 µM. For the same compound, the GI50 [7] was 0.0924 µM, the TGI [7] was 0.664 µM and the GI50 [8] was 0.615 µM. For the same compound, the TGI [8] was greater than 100 µM, the GI50 [9] was 30.8 µM and the TGI [9] was greater than 100 µM. For the same compound, the GI50 [10] was 10.5 µM and the TGI [10] was greater than 100 µM.
CC1C=CC(OC(=O)C(C)(O)CCC(O)(C(=O)OC2CC(O)C(C(C)C)CC2(C)O)C(C)C)(C(C)C)CC1 (stereo not given) was tested, and the GI50 [1] was 0.681 µM, the TGI [1] was 1.37 µM and the GI50 [2] was 0.618 µM. It also gave a TGI [2] of 1.41 µM, a GI50 [3] of 0.235 µM and a TGI [3] of 0.869 µM. The GI50 [4] was 0.655 µM, the TGI [4] was 1.68 µM and the GI50 [5] was 0.232 µM. It also gave a TGI [5] of 0.64 µM, a GI50 [6] of 0.0916 µM and a TGI [6] of 0.218 µM. For the same compound, the GI50 [7] was 0.188 µM, the TGI [7] was 0.409 µM and the GI50 [8] was 0.149 µM. For the same compound, the TGI [8] was 0.602 µM, the GI50 [9] was 0.292 µM and the TGI [9] was 1.81 µM. It also gave a GI50 [10] of 0.754 µM and a TGI [10] of 1.5 µM.
For COC(=O)c1cc(-c2ccc(OC)c(OC)c2)[nH]c1N/N=C/c1c(Cl)cccc1Cl, the GI50 [1] was 0.83 µM, the TGI [1] was 4.32 µM and the GI50 [2] was 0.708 µM. The TGI [2] was 19.5 µM, the GI50 [3] was 0.946 µM and the TGI [3] was 24 µM. The GI50 [4] was 0.25 µM, the TGI [4] was 0.531 µM and the GI50 [6] was 0.46 µM. For the same compound, the TGI [6] was greater than 100 µM, the GI50 [7] was 0.366 µM and the TGI [7] was 1.87 µM. For the same compound, the GI50 [8] was 0.969 µM, the TGI [8] was 18.8 µM and the GI50 [9] was 3.99 µM. It also gave a TGI [9] of 92.5 µM, a GI50 [10] of 1.64 µM and a TGI [10] of 9.47 µM.
C[C@@H]1O[C@@H](O[C@@H]2[C@@H](O)[C@H](OCCc3ccc(O)c(O)c3)O[C@H](CO)[C@H]2OC(=O)/C=C/c2ccc(O)c(O)c2)[C@H](O)[C@H](OC2OC[C@](O)(CO)[C@H]2O)[C@H]1O (stereo not given in full) showed a GI50 [1] of 84.7 µM, a TGI [1] greater than 100 µM and a GI50 [2] of 63.9 µM. It also gave a TGI [2] greater than 100 µM, a GI50 [3] greater than 100 µM and a TGI [3] greater than 100 µM. It also gave a GI50 [4] greater than 100 µM, a TGI [4] greater than 100 µM and a GI50 [5] greater than 100 µM. The TGI [5] was greater than 100 µM, the GI50 [6] was 58.5 µM and the TGI [6] was greater than 100 µM. For the same compound, the GI50 [7] was 35 µM, the TGI [7] was greater than 100 µM and the GI50 [8] was greater than 100 µM. The TGI [8] was greater than 100 µM, the GI50 [9] was greater than 100 µM and the TGI [9] was greater than 100 µM. It also gave a GI50 [10] greater than 100 µM and a TGI [10] greater than 100 µM.
In the case of Oc1cccc2c1NCCC2, the GI50 [1] is reported as 0.734 µM, the TGI [1] is reported as greater than 100 µM and the GI50 [2] is reported as 1.78 µM. It also gave a TGI [2] greater than 100 µM, a GI50 [3] of 0.19 µM and a TGI [3] greater than 100 µM. The GI50 [4] was 0.194 µM, the TGI [4] was 7.84 µM and the GI50 [5] was 0.745 µM. For the same compound, the TGI [5] was greater than 100 µM, the GI50 [6] was 0.141 µM and the TGI [6] was greater than 73.9 µM. The GI50 [7] was 0.0425 µM, the TGI [7] was 2.59 µM and the GI50 [8] was 0.121 µM. The TGI [8] was greater than 76.2 µM, the GI50 [9] was 0.581 µM and the TGI [9] was 96.2 µM. It also gave a GI50 [10] of 1.96 µM and a TGI [10] greater than 100 µM.
In the case of N/C(=N\OC(=O)c1ccccc1)C(Cc1ccccc1)C(=O)NOC(=O)c1ccccc1 (stereo not given), the GI50 [1] is reported as 3.04 µM, the TGI [1] is reported as 8 µM and the GI50 [2] is reported as 2.23 µM. For the same compound, the TGI [2] was 6.52 µM, the GI50 [3] was 2.21 µM and the TGI [3] was 10.5 µM. The GI50 [4] was 2.35 µM, the TGI [4] was 6.56 µM and the GI50 [5] was 0.43 µM. For the same compound, the TGI [5] was 2.09 µM, the GI50 [6] was 1.05 µM and the TGI [6] was 3.42 µM. The GI50 [7] was 1.8 µM, the TGI [7] was 4.1 µM and the GI50 [8] was 3.39 µM. The TGI [8] was 25.4 µM, the GI50 [9] was 3.18 µM and the TGI [9] was 15.8 µM. The GI50 [10] was 2.12 µM and the TGI [10] was 3.76 µM.
For CN1CCc2nc3sc(C(N)=O)c(N)c3c(-c3cccs3)c2C1, the GI50 [1] was 4.41 µM, the TGI [1] was greater than 100 µM and the GI50 [2] was 3.54 µM. For the same compound, the TGI [2] was greater than 100 µM, the GI50 [3] was 3.31 µM and the TGI [3] was greater than 100 µM. For the same compound, the GI50 [4] was 2.5 µM, the TGI [4] was 6.97 µM and the GI50 [5] was 5.16 µM. The TGI [5] was greater than 100 µM, the GI50 [6] was 4.99 µM and the TGI [6] was greater than 100 µM. The GI50 [7] was 2.16 µM, the TGI [7] was 6.23 µM and the GI50 [8] was 2.69 µM. For the same compound, the TGI [8] was greater than 100 µM, the GI50 [9] was 2.81 µM and the TGI [9] was greater than 100 µM. For the same compound, the GI50 [10] was 3.32 µM and the TGI [10] was 13.1 µM.
Work on N#CCCNc1nonc1-c1nc2ccccc2n1CC(=O)c1ccc(NC(=O)[C@@H](N)CCCCN)cc1 yielded a GI50 [1] of 0.0557 µM, a TGI [1] greater than 100 µM and a GI50 [3] of 0.0356 µM. It also gave a TGI [3] greater than 100 µM, a GI50 [4] of 0.0317 µM and a GI50 [5] of 0.11 µM. The TGI [5] was greater than 100 µM, the GI50 [6] was 0.0322 µM and the TGI [6] was greater than 100 µM. The GI50 [7] was 0.0235 µM, the TGI [7] was 0.0542 µM and the GI50 [8] was 0.0498 µM. It also gave a TGI [8] greater than 100 µM, a GI50 [9] greater than 73.8 µM and a TGI [9] greater than 100 µM. For the same compound, the GI50 [10] was 11.9 µM and the TGI [10] was greater than 100 µM.
Cc1cc(C)c(C2CNCc3cc4c(cc32)CNCC4c2c(C)cc(C)cc2C)c(C)c1 (stereo not given) gave a GI50 [1] of 2.34 µg/mL, a TGI [1] of 5.26 µg/mL and a GI50 [2] of 5.97 µg/mL. The TGI [2] was 17.2 µg/mL, the GI50 [3] was 4.13 µg/mL and the TGI [3] was 14.2 µg/mL. For the same compound, the GI50 [4] was 1.81 µg/mL, the TGI [4] was 4.3 µg/mL and the GI50 [5] was 4.68 µg/mL. The TGI [5] was 18 µg/mL, the GI50 [6] was 1.1 µg/mL and the TGI [6] was 3.22 µg/mL. It also gave a GI50 [7] of 1.91 µg/mL, a TGI [7] of 4.27 µg/mL and a GI50 [8] of 2.59 µg/mL. It also gave a TGI [8] of 9.63 µg/mL, a GI50 [9] of 2.68 µg/mL and a TGI [9] of 7.65 µg/mL. For the same compound, the GI50 [10] was 3.22 µg/mL and the TGI [10] was 26.9 µg/mL.
Cn1ccnc1Oc1ccc(Cl)cc1 gave a TGI [1] of 24.7 µM, a TGI [2] of 49.1 µM and a TGI [3] of 23.9 µM. For the same compound, the TGI [4] was 11.1 µM, the TGI [6] was 42.3 µM and the TGI [8] was 26.4 µM. For the same compound, the TGI [9] was 14.3 µM and the TGI [10] was 32.6 µM.

From PubChem BioAssay (NCI)
